In US5641779A, “Selective ligands of 5-HT1D -5-HT1B receptors derived from indolepiperazine which are useful medicaments” (Pierre Fabre Medicament, priority 1992, dated 1997):
Where a name gives a salt, the structure may show the parent alone. Read-outs that look alike come from different tables or passages of the source.

Key:
5-HT2 = target: T1, 5-HT2 (Rattus norvegicus, UniProt P14842); assay: 5-HT2 receptor binding (Leysen et al.); conditions: 3H-ketanserine (title of cited method)
T1 construct: from tissue
Protocol: (§1) The IC50 values of the various products which form part of this invention for the other receptors were measured according to the techniques described in the following references:
Leysen J. E., Niemegeers C. J. E., Van Nueten J. M. and Laduron P.M. ^3 H-ketanserine (R 41468), a selective ^3 H ligand for serotonin2 receptor binding sites. Mol. Pharmacol., 21, 301-330, 1982.

D2-Dopaminergic receptor = target: T2, D2-Dopaminergic receptor (Canis lupus familiaris, UniProt Q9GJU1); assay: D2-Dopaminergic receptor binding (Nisnik et al.)
T2 construct: from tissue
Protocol: as §1
Nisnik H. B., Grigoriadis D. E., Pri-Bar I., Buckman O. and Seeman P. Dopamine D2 receptors selectively labeled by a benzamide neuroleptic: ^3 H-YM-09159-2 Naunyn-Schmiedeberg's Arch. Pharmacol. 329, 333-343, 1985.

5-HT1C = target: T3, 5-HT1C (Sus scrofa, UniProt K7GSR7); assay: 5-HT1C receptor binding (Pazos et al.); design: species or system porcine
T3 construct: serotonergic ligands to the porcine choroid plexus; from tissue; host or cells: porcine choroid plexus
T3 sequence (K7GSR7 1-457): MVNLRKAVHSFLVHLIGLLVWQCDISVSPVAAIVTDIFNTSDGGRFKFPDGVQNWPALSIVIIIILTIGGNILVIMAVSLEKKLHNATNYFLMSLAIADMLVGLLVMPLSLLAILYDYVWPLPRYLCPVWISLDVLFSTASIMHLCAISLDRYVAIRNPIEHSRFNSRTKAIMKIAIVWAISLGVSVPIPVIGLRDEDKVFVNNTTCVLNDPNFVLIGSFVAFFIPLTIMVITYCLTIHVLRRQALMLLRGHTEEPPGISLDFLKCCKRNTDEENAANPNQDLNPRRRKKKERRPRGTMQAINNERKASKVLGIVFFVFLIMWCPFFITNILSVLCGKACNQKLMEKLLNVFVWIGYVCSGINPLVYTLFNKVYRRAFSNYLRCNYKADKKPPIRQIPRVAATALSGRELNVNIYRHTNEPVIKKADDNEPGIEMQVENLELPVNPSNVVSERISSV
Protocol: as §1
Pazos A., Hoyer D. and Palacios J. M. The binding sites of serotonergic ligands to the porcine choroid plexus: characterization of a new type of serotonin recognition site. Eur. J. Pharmacol., 106, 539-546, 1985.

5-HT1D = assay: Affinity for 5-HT1D receptors (3H-5-HT binding, sheep caudate nuclei membranes); conditions: Ratio of the IC50 values for the 5HT1A and 5HT1D receptors
Protocol: This study is carried out according to the technique described by Herrick-Davis and Titeler (J. Neurochem. 50, 1624-1631, 1988).
Preparation of the membranes:
Sheep brains are removed at the local abattoir and transported in ice. The caudate nuclei are removed, weighed and homogenized with a Polytron for 20 sec. (speed 6-7) in 20 volumes of Tris-HCl 50 mM, pH 7.7. The homogenate is centrifuged for 10 min at 48,000 g with an L5 50E centrifuge (Beckman).
The pellet, taken up in 20 volumes of Tris-HCl 50 mM, pH 7.7, is placed in a water bath at 37° C. for 10 min and then recentrifuged for 10 min at 48,000 g. The pellet then obtained is immediately frozen in fractions containing 0.5 g of tissue.
The pellet is defrosted and homogenized with a Dounce in 80 volumes of Tris-HCl, 50 mM pH 7.7 containing 4 mM CaCl2, 10μM of pargyline and 0.1% of ascorbic acid.
Binding is carried out at 25° C. by incubating for 30 min:
0.1 ml of buffer or 10 μM, as final concentration, of sumatriptan, in order to obtain the non-specific binding, or the product which forms part of this invention at various concentrations (between 10^-10 and 10^-6 M).
0.8 ml of membrane suspension
0.1 ml of ^3 H-5-HT (15 to 30 Ci/mM, New England Nuclear France)
The incubation is brought to an end by rapid filtration through GF/B filters and rinsing with 3 times 3 ml of ice-cold buffer, using a harvester manufactured by Brandel which makes it possible to filter 48 samples. The filters are introduced into vials containing 4 ml of emulsifier-safe liquid scintillant (Packard) and the radioactivity measured with a Tri-carb 4640 counter (Packard).
The IC50 (concentration which inhibits the specific affinity by 50%) is determined graphically.

α2-Adrenergic receptor = target: T4, α2-Adrenergic receptor (Rattus norvegicus, UniProt P22909); assay: α2-Adrenergic receptor binding (Mallard et al.)
T4 construct: in the rat brain; from tissue; host or cells: rat brain
T4 sequence (P22909 1-465): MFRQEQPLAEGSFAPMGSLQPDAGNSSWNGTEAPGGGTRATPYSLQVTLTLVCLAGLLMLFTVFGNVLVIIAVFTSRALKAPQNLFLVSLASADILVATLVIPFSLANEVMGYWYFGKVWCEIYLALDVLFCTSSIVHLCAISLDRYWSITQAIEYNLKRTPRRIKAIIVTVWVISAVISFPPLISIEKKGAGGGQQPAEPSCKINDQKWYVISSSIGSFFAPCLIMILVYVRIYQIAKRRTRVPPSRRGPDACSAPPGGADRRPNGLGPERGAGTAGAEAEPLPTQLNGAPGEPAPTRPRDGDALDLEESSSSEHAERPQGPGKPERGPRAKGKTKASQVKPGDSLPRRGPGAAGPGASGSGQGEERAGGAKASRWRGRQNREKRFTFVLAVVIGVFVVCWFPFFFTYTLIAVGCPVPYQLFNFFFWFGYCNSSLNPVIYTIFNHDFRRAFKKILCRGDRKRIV
Protocol: as §1
Mallard N. J., Tyacke R., Hudson A. L. and Nutt D. S. Comparative binding studies of ^3 -idazoxan and ^3 -RX821002 in the rat brain. Brit. J. Pharmacol. 102, 221P, 1991.

5-HT1A = target: T5, 5-HT1A (Rattus norvegicus, UniProt P19327); assay: 5-HT1A receptor binding (Peroutka)
T5 construct: from tissue; host or cells: rat frontal cortex
T5 sequence (P19327 1-422): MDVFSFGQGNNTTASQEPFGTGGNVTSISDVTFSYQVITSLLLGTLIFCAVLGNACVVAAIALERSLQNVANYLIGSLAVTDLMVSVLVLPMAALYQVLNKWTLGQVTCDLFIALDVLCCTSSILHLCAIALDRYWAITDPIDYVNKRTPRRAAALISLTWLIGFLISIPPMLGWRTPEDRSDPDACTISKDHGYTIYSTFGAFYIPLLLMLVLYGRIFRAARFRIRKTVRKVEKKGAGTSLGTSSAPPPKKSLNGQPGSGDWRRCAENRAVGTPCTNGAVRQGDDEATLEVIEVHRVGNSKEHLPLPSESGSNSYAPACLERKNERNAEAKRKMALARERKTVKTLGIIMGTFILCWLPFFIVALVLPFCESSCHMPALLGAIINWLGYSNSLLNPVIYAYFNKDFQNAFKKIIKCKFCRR
Protocol: as §1
(§2) Peroutka S. J. Pharmacological differentiation and characterization of 5-HT1A, 5-HT1B and 5-HT1C binding sites in rat frontal cortex. J. Neurochem., 45, 529-540, 1986.

α1-Adrenergic receptor = α1-Adrenergic receptor binding (Leslie Morrow and Creese); conditions: rat brain (title of cited method)
Protocol: as §1
Leslie Morrow A. and Creese I. Characterization of α1-adrenergic receptor subtypes in rat brain: a reevaluation of ^3 H-WB4101 and ^3 H prazosin binding. Mol. Pharmacol. 29, 321-330, 1986.

5-HT1B = target: T6, 5-HT1B (Rattus norvegicus, UniProt P28564); assay: 5-HT1B receptor binding (Peroutka)
T6 construct: from tissue; host or cells: rat frontal cortex
Protocol: as §1, §2

[1] = 3H-YM-09159-2 (title of cited method), read-out: IC50 D2
[2] = rat brain (title of cited method), read-out: IC50 α2
[3] = rat frontal cortex (title of cited method), mean, read-out: IC50 5-HT1A mean
[4] = porcine choroid plexus (title of cited method), read-out: IC50 5-HT1C
[5] = rat frontal cortex (title of cited method), mean, read-out: IC50 5-HT1B mean

T1 sequence (P14842 whole entry): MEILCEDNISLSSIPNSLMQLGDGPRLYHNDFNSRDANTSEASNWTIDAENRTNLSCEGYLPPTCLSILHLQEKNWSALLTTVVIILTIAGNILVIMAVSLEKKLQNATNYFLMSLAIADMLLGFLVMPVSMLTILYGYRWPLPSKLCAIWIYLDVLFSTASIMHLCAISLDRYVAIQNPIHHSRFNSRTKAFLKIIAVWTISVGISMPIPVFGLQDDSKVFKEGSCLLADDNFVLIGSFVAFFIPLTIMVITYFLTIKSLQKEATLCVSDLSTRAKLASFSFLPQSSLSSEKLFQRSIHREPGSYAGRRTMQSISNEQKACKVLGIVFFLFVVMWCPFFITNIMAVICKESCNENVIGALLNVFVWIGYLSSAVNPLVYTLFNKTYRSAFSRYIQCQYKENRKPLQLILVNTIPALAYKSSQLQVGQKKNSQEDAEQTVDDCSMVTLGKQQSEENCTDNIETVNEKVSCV
T6 sequence (P28564 whole entry): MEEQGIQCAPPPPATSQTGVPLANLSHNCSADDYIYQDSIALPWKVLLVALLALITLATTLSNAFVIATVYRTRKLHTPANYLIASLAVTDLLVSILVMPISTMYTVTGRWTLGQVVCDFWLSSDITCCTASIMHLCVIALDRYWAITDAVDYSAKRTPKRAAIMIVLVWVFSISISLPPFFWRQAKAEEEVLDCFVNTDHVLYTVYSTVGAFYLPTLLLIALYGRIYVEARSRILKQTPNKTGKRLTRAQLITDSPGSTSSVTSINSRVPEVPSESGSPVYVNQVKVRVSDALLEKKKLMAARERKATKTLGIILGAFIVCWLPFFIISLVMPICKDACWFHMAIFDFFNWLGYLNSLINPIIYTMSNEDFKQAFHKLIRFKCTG
T2 sequence (Q9GJU1 whole entry): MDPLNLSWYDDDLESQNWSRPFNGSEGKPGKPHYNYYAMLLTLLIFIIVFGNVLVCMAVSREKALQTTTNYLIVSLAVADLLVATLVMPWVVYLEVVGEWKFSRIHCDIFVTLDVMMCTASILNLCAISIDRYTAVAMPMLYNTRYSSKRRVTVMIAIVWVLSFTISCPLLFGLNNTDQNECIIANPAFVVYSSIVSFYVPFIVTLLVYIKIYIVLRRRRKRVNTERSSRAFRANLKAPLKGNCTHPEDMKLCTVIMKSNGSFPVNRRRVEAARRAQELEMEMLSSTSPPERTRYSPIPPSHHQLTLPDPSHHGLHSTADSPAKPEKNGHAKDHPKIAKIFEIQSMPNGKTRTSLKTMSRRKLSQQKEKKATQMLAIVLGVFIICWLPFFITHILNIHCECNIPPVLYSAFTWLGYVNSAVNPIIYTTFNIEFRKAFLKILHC

Row | SMILES | IC50 (5-HT2) | IC50 (D2-Dopaminergic receptor; [1]) | IC50 (5-HT1C) | Ratio 1A/1D (5-HT1D) | IC50 (α2-Adrenergic receptor; [2]) | IC50 (5-HT1A; [3]) | IC50 (α1-Adrenergic receptor) | IC50 (5-HT1B) | IC50 (D2-Dopaminergic receptor) | IC50 (5-HT1C; [4]) | IC50 (α2-Adrenergic receptor) | IC50 (5-HT1A) | IC50 (5-HT1B; [5])
1 | NCCc1c[nH]c2ccc(OCC(=O)N3CCN(c4cccc5ccccc45)CC3)cc12 [Example 4, 4-(Naphth-1-yl)-1-(tryptamine-5-O-carboxymethyl) piperazide hydrochloride] | > 1000 nM | > 1000 nM | 1800 nM | 35.9 | > 1000 nM | 115 nM | > 1000 nM | 1.9 nM | – | – | – | – | –
2 | COc1cccc(N2CCN(C(=O)COc3ccc4[nH]cc(CCN)c4c3)CC2)c1 [Example 6, 4-(m-Methoxyphenyl)-1-(tryptamine-5-O-carboxymethyl) piperazide hydrochloride] | > 1000 nM | – | – | 8.1 | – | – | > 1000 nM | 1.1 nM | > 1000 nM | > 1000 nM | > 1000 nM | 23.5 nM | –
3 | Cc1ccccc1N1CCN(C(=O)COc2ccc3[nH]cc(CCNC(=O)OC(C)(C)C)c3c2)CC1 [ID, 4-o-Tolyl-1-(tert-butoxycarbamate-tryptamine-5-O-carboxymethyl) piperazide hydrochloride] | 2000 nM | > 100 nM | – | 18.5 | 7000 nM | 120 nM | 8500 nM | – | – | – | – | – | –
4 | Cc1ccccc1N1CCN(C(=O)C(C)Oc2ccc3[nH]cc(CCN)c3c2)CC1 (stereo not drawn) [Example 11, 4-o-Tolyl-1-[tryptamine-5-O-(α-methylcarboxymethyl)]piperazide hydrochloride] | > 1000 nM | – | 1000 nM | 20.8 | – | 125 nM | – | 5.5 nM | – | – | – | – | –
5 | NCCc1c[nH]c2ccc(OC(C(=O)N3CCN(c4cccc5ccccc45)CC3)c3ccccc3)cc12 (stereo not drawn) [Example 10, 4-Naphthyl-1-[tryptamine-5-O-(α-phenylcarboxymethyl)]piperazide hydrochloride] | > 1000 nM | > 1000 nM | – | 0.7 | > 1000 nM | 465 nM | > 1000 nM | – | – | > 1000 nM | – | – | 335 nM
6 | CN1CCN(C(=O)COc2ccc3[nH]cc(CCN)c3c2)CC1 [Example 7, 4-Methyl-1-(tryptamine-5-O-carboxymethyl)piperazide hydrochloride] | > 1000 nM | > 1000 nM | > 1000 nM | > 1.4 | > 1000 nM | > 1000 nM | > 1000 nM | – | – | – | – | – | 355 nM
